Measured values published in patent US7687496B2, “C7-substituted camptothecin analogs” (priority 2007, dated 2010).
Where two headings read alike, the source gives them in different places.

Tests used:
A2780/DX5 cells = assay: Sulforhodamine B (SRB) cytotoxicity assay in A2780/DX5 cells; format: cell-based; settings: for IC50 Ratio: A2780/DX5 versus A2780/WT; for IC50: Homo sapiens, A2780, read-out: A2780/DX5
Protocol: (§1) Each of the testing conditions used in this study in both A2780/WT (wild-type) and A2780/DX5 cells were repeated in five to fifteen experiments that were performed on separate days. Each experiment consisted of one microtiter plate with at least eight individual assays of a given drug treatment condition on the plate. The sulforhodamine B (SRB) assay was used to assess cytotoxicity and absorbance at 570 nm (A570) in order to calculate the percentage of cell control (or percent cell survival) for the various treatment conditions in the plate wells.
(§2) Roswell Park Memorial Institute (RPMI 1640) medium, fetal bovine serum (FBS), and L-glutamine were purchased from Gibco BRL. Drugs were dissolved in sterile dimethylsulfoxide (DMSO), from American Type Culture Collection (ATCC) for stock solutions (2.5 to 5.0 mM). Subsequent dilutions were made using cell culture medium (prior to adding the drug to cells). SRB was purchased from Sigma and dissolved in 1.0 percent acetic acid. Trichloroacetic acid was purchased from VWR International.
(§3) Cells were manipulated in a Class IIA/B3 Biological Safety Cabinet (Forma Scientific) and maintained at 37° C. in a humidified atmosphere containing 5% CO2 in a water-jacketed cell culture incubator (Forma Scientific). Cells were counted using a Coulter-Z1 counter (Beckman-Coulter). Following drug treatment, plates were washed using a Biomek 2000 station (Beckman) and, following exposure to SRB dye, plates were washed using an automated plate washer (Model EL404, Bio-Tek Instruments). Percentage of control was correlated to A570 values and determined using a Model EL800 plate reader (Bio-Tek Instruments).
(§4) Population doubling times for the two cell lines used in this study encompassed a total of five cell doublings corresponding to approximately 5 days for A2780/WT and A2780/DX5 cells. A2780/WT and A2780/DX5 cells were cultured in RPMI 1640 medium supplemented with 10% fetal bovine serum and 1 mM of L-glutamine. Both cell lines were maintained as monolayered cultures in T-25 or T-75 flasks and then seeded to microtiter plate wells for experiments described herein. Prior to SRB assays, cell viability was monitored by evaluation of microtiter plate wells. Dead cells detach and float while living cells remain attached to the bottom of the cell well.
The sulforhodamine B (SRB) cytotoxicity assay (see, Skehan P, et al., New colorimetric cytotoxicity assay for anticancer-drug screening. J. Natl. Cancer Inst. 82:1107-1112 (1990)) was used to determine the cytotoxic effects of BNP1350, SN-38, topotecan, 9-NH2-CPT, and 9-NO2-CPT on cell growth in vitro. Briefly, after the medium was aspirated from individual plate wells, trichloroacetic acid (100 μL of 10.0% solution) was added to each well, and the plates were incubated at 4° C. for at least 1 hour. The plates were washed five-times with water using an automated microplate washer (Model EL 404, Bio-Tek Instruments), SRB solution (100 μL of 0.4 grams SRB dissolved in 100 mL 1.0 percent acetic acid) was added, and plates remained at room temperature for 15 minutes. The plates were then washed five-times using acetic acid (1.0%), air dried, and bound dye was solubilized in Tris base (150 μL, 10 mM). Plates were agitated (gently) for 5 minutes and the absorbance values of the SRB dye-protein adduct at a 570 nm wavelength (A570) were determined using an automated microtiter plate reader equipped with an A570 filter (Model EL800, BioTek Instruments).

[1] = test system: A2780/WT (wild-type) cells; assay: Sulforhodamine B (SRB) cytotoxicity assay in A2780/WT cells; format: cell-based; settings: Homo sapiens
Protocol: as §1, §2, §3
as §4, with “Dead cells detach and float while living cells remain attached to the bottom of the cell well.” left out
The sulforhodamine B (SRB) cytotoxicity assay (see, Skehan P, et al., New colorimetric cytotoxicity assay for anticancer-drug screening. J. Natl. Cancer Inst. 82:1107-1112 (1990)) was used to determine the cytotoxic effects of BNP1350, SN-38, topotecan, 9-NH2-CPT, and 9-NO2-CPT on cell growth in vitro. […] Plates were agitated (gently) for 5 minutes and the absorbance values of the SRB dye-protein adduct at a 570 nm wavelength (A570) were determined using an automated microtiter plate reader equipped with an A570 filter (Model EL800, BioTek Instruments).

[2] = cited from earlier work
[3] = doses of 20 to 30 mg/m^2; cited from earlier work
[4] = test system: advanced malignant melanoma; settings: fifteen patients, 90-360 mg/m^2 every 2 weeks; cited from earlier work
[5] = test system: advanced gastrointestinal cancer; settings: cited from earlier work
[6] = test system: panel of over 20 human cancer cell lines
[7] = carboxylate form versus lactone form; cited from earlier work
human plasma proteins = assay: Percent of free camptothecin analogs in human plasma (dialysis, HPLC); settings: 100 nM compound concentrations
Protocol: Stocks of various camptothecin analogs were prepared in DMSO. Phosphate buffer was prepared from analytical grade reagents and regenerated cellulose membranes with 12-14 kD molecular weight cut-off (MWCO) were purchased from Spectrum Laboratories. Samples were incubated 48 hours or longer at room temperature until equilibrium was reached. Experiments to determine the percent of free camptothecin/Karenitecin® analogs were performed in triplicate. Optimum HPLC detection conditions for each camptothecin/Karenitecin® analog were developed using traditional HPLC methods.

[8] = clinical studies in Japan; cited from earlier work
[9] = 5-day course, 15 mg/m^2 × 5, 9 patients treated
[10] = 5-day course, 17 mg/m^2 × 5, 5 patients treated
[11] = 5-day course, 20 mg/m^2 × 5, 10 patients treated
[12] = single-dose method, 110 mg/m^2, 2 patients treated
[13] = single-dose method, 120 mg/m^2, 7 patients treated
[14] = single-dose method, 180 mg/m^2, 9 patients treated
[15] = 5-day course (27 patients total), 4 wks
[16] = 5-day course (27 patients total), 8 wks
[17] = 5-day course (27 patients total), 12 wks
[18] = single-dose method (34 patients total), 3 wks
[19] = single-dose method (34 patients total), 6 wks
[20] = single-dose method (34 patients total), 9 wks
[21] = single-dose method (34 patients total), 12 wks

SMILES: CC[C@@]1(O)C(=O)OCc2c1cc1n(c2=O)Cc2c-1nc1ccccc1c2CC[Si](C)(C)CCCOC(=O)C1CCC1 [Compound 62, Cyclobutanecarboxylic acid 3-{[2-(4-ethyl-4-hydroxy-3,13-dioxo-3,4,12,13-tetrahydro-1H-2-oxa-6,12a-diaza-dibenzo[b,h]fluoren-11-yl)-ethyl]-dimethyl-silanyl}-propyl ester]
- IC50 Ratio (A2780/DX5 cells): 3.77
- IC50 (A2780/DX5 cells): 39.2 nM
- IC50 ([1]; A2780, read-out: A2780/WT): 10.4 nM

SMILES: CC[C@@]1(O)C(=O)OCc2c1cc1n(c2=O)Cc2cc3ccccc3nc2-1 [CPT sodium]
- Cystitis ([2]; 5-day course (P < 0.05)): 48 (P < 0.05) % of 27 Patients
- Number of patients with cystitis ([2]; 5-day course, 11 mg/m^2 × 5, 2 patients treated): 1 patients
- Number of patients with cystitis [2, 9]: 4 patients
- Number of patients with diarrhea [2, 9]: 1 patients
- Number of patients with cystitis [2, 10]: 2 patients
- Number of patients with diarrhea [2, 10]: 4 patients
- Number of patients with cystitis [2, 11]: 6 patients
- Number of patients with diarrhea [2, 11]: 4 patients
- Number of patients with diarrhea ([2]; 5-day course, 22 mg/m^2 × 5, 1 patient treated): 1 patients
- Number of patients with cystitis ([2]; single-dose method, 100 mg/m^2, 6 patients treated): 2 patients
- Number of patients with cystitis [2, 12]: 1 patients
- Number of patients with diarrhea [2, 12]: 1 patients
- Number of patients with cystitis [2, 13]: 2 patients
- Number of patients with diarrhea [2, 13]: 4 patients
- Number of patients with cystitis [2, 14]: 3 patients
- Number of patients with diarrhea [2, 14]: 2 patients
- dose-limiting bladder toxicity [3]: three patients
- less pronounced transient tumor regression [4]: three patients
- myelosuppression [4]: 11 patients
- patients with a 50% or greater decrease in tumor diameter [4]: None of the patients
- Objective results: Improved [5, 15]: 1 patients
- Objective results: Stable [5, 15]: 12 patients
- Objective results: Worse [5, 15]: 14 patients
- Objective results: Stable [5, 16]: 7 patients
- Objective results: Worse [5, 16]: 20 patients
- Objective results: Stable [5, 17]: 6 patients
- Objective results: Worse [5, 17]: 21 patients
- patients with evidence of partial objective improvement ([5]; after 2 months (8 or 9 weeks), 61 patients): two of their 61 patients
- Objective results: Improved ([5]; single-dose method (34 patients total), 3 wks after start of therapy): 4 patients
- Objective results: Stable [5, 18]: 17 patients
- Objective results: Worse [5, 18]: 13 patients
- Objective results: Improved [5, 19]: 2 patients
- Objective results: Stable [5, 19]: 11 patients
- Objective results: Worse [5, 19]: 21 patients
- Objective results: Improved [5, 20]: 2 patients
- Objective results: Stable [5, 20]: 8 patients
- Objective results: Worse [5, 20]: 24 patients
- Objective results: Stable [5, 21]: 6 patients
- Objective results: Worse [5, 21]: 28 patients

SMILES: CC[C@@]1(O)C(=O)OCc2c1cc1n(c2=O)Cc2c-1nc1ccccc1c2CC[Si](C)(C)C [Karenitecin, (4S)-4-ethyl-4-hydroxy-11-[2-(trimethylsilyl)ethyl]-1H-pyrano[3′:4′:6,7]indolizino[1,2-b]quinoline-3,14(4H,12H)-dione]
- antitumor potency compared with Topotecan and SN-38 [6]: significantly more potent antitumor agent than either Topotecan™ or SN-38

SMILES: CC[C@@]1(O)C(=O)OCc2c1cc1n(c2=O)Cc2c-1nc1ccccc1c2CC[Si](C)(C)CSC(C)=O [Compound 9, thioacetic acid S-({[2-(4-ethyl-4-hydroxy-3,13-dioxo-3,4,12,13-tetrahydro-1H-2-oxa-6,12a-diaza-dibenzo[b,h]fluoren-11-yl)-ethyl]-dimethylsilanyl}-methyl)ester]
- IC50 Ratio (A2780/DX5 cells): 1.94
- IC50 (A2780/DX5 cells): 125 nM
- IC50 ([1]; A2780, read-out: A2780/WT): 64.7 nM

SMILES: CC[C@@](O)(C(=O)O)c1cc2n(c(=O)c1CO)Cc1cc3ccccc3nc1-2 [carboxylate form of CPT]
- reduction of anti-tumor activity [7]: at least 10 fold

SMILES: C=C[Si](C)(C)CCc1c2c(nc3ccccc13)-c1cc3c(c(=O)n1C2)COC(=O)[C@]3(O)CC [Compound 1, 11-(4S)-[2-(dimethylvinylsilanyl)-ethyl]-4-ethyl-4-hydroxy-1,12-dihydro-4H-2-oxa-6,12a-diaza-dibenzo[b,h]fluorene-3,13-dione]
- IC50 Ratio (A2780/DX5 cells): 1.68
- IC50 (A2780/DX5 cells): 21.8 nM
- IC50 ([1]; SRB assay, A2780/WT cells, read-out: A2780/WT): 13 nM
- Percent of Free Camptothecin Analogs in Human Plasma (human plasma proteins): 2%

SMILES: CCc1c2c(nc3ccc(OC(=O)N4CCC(N5CCCCC5)CC4)cc13)-c1cc3c(c(=O)n1C2)COC(=O)[C@]3(O)CC [CPT-11, 7-ethyl-10-[4-(1-piperidino)-1-piperidino]carbonyloxy camptothecin]
- patient deaths directly attributable to drug toxicity [8]: approximately 100 patient deaths

SMILES: CC[C@@]1(O)C(=O)OCc2c1cc1n(c2=O)Cc2c-1nc1ccccc1c2CC[Si](C)(C)CCCOC(=O)C1=CCNO1 [Compound 64, 2,3-Dihydro-isoxazole-5-carboxylic acid 3-{[2-(4-ethyl-4-hydroxy-3,13-dioxo-3,4,12,13-tetrahydro-1H-2-oxa-6,12a-diaza-dibenzo[b,h]fluoren-11-yl)-ethyl]-dimethyl-silanyl}-propyl ester]
- IC50 Ratio (A2780/DX5 cells): 4.27
- IC50 (A2780/DX5 cells): 59.8 nM
- IC50 ([1]; A2780, read-out: A2780/WT): 14 nM
